Experimental data from PubChem BioAssay AID1224866 (Xiaojiang Lab, Kunming Institute of Botany, CAS, 2016).

Assays:
Experiment in all cases: nuclear TFEB, TFE3 and cytosolic ZKSCAN3 localization – imaging, HeLa, EGFP fusions (AID 1224866)
[1] = tested on: HeLa TFEB-EGFP nuclear translocation, imaging; details: stronger effect = higher value; dose or concentration not given here
[2] = target: Transcription factor E3 (Homo sapiens) (UniProt P19532); details: HeLa; measured here: TFE3 nuclear translocation; stronger effect = higher value; dose or concentration not given here
[3] = target: Zinc finger protein with KRAB and SCAN domains 3 (Homo sapiens) (UniProt Q9BRR0); details: HeLa EGFP-ZKSCAN3 cytoplasmic translocation; stronger effect = higher value; dose or concentration not given here

Row | Compound | cells with nuclear TFEB-EGFP [1] [%] | cells with nuclear EGFP-TFE3 [2] [%] | cells with cytosolic EGFP-ZKSCAN3 [3] [%]
1 | CCCCCCCCCCCC(=O)O[C@@]12C[C@@H](C)[C@]34C=C(C)[C@H](O)[C@@]3(O)[C@H](O)C(COC(=O)C(C)C(C)C)=C[C@@H](C4=O)[C@@H]1C2(C)C (stereo not given in full) | 62 | 3.9 | 67.4
2 | CC1=C[C@H]2C(=O)[C@]3(C=C(C)[C@H](O)[C@@]3(O)[C@@H]1OC(=O)c1ccccc1)[C@H](C)C[C@@H]1[C@H]2C1(C)C | 81.3 | 4.2 | 79.2
3 | CCCCCCCCCCCC(=O)O[C@@]12C[C@@H](C)[C@]34C=C(C)[C@H](OC(=O)C(C)C(C)C)[C@@]3(O)[C@H](O)C(CO)=C[C@@H](C4=O)[C@@H]1C2(C)C (stereo not given in full) | 66.1 | 4.3 | 69.7
4 | CCCCCCCCCCCCCC(=O)OCC1=C[C@H]2C(=O)[C@]3(C=C(C)[C@H](O)[C@@]3(O)[C@@H]1O)[C@H](C)C[C@@H]1[C@H]2C1(C)C | 67.2 | 4.8 | 76.4
5 | CC=C(C)C(=O)O[C@@H]1C(C)=C[C@H]2C(=O)[C@]3(C=C(C)[C@H](OC(C)=O)[C@@]13O)[C@H](C)C[C@@H]1[C@H]2C1(C)C | 70.3 | 4.2 | 75
6 | CC(=O)O[C@@H]1C(C)=C[C@H]2C(=O)[C@]3(C=C(C)[C@H](OC(=O)c4ccccc4)[C@@]13O)[C@H](C)C[C@@H]1[C@H]2C1(C)C | 74.5 | 4.6 | 74.1
7 | CCCCCCCCCCCCCCCC(=O)OCC1=C[C@H]2C(=O)[C@]3(C=C(C)[C@H](O)[C@@]3(O)[C@@H]1O)[C@H](C)C[C@@H]1[C@H]2C1(C)C | 66.6 | 5.1 | 74.3
8 | CC1=C[C@H]2C(=O)[C@]3(C=C(C)[C@H](OC(=O)c4ccccc4)[C@@]3(O)[C@@H]1O)[C@H](C)C[C@@H]1[C@H]2C1(C)C | 65.8 | 4 | 68.4
9 | CC=C(C)C(=O)O[C@H]1C(C)=C[C@]23C(=O)[C@H](C=C(C)[C@@H](O)[C@]12O)[C@H]1[C@@H](C[C@H]3C)C1(C)C | 80.8 | 5.4 | 76.9
10 | CC=C(C)C(=O)O[C@@H]1C(C)=C[C@H]2C(=O)[C@]3(C=C(C)[C@H](O)[C@@]13O)[C@H](C)C[C@@H]1[C@H]2C1(C)C | 85.6 | 5.2 | 83.6
